Reference: PubChem BioAssay AID330 (DTP/NCI, 2004)
Several values for one entry are separate records, joined by “and”; a condition that tells them apart may be missing. Identical values can stand only once. Toxic doses and inconclusive results are not listed. How the source made its calls: active means survival T/C of 150% or more; inactive means T/C below 125% in these data.

Test system: P388 leukemia ip, CD2F1 mice, survival T/C
Assay: NCI In Vivo Anticancer Drug Screen. Data for tumor model P388 Leukemia (intraperitoneal) in CD2F1 (CDF1) mice
Settings: endpoint: median survival time, higher = longer survival
Summary of the method: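 Mice carrying the transplanted tumor received test compound or vehicle. Survival was recorded in each group, and the value is the treated-group measurement divided by that of the vehicle-treated control group.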

[1] = dose: 12.5 mg/kg/injection, schedule: Q01DX009 (ip), vehicle: Klucel (hydroxypropylcellulose) (HPC)
[2] = dose: 50.0 mg/kg/injection, schedule: Q01DX005 (ip), vehicle: saline with Tween-80
[3] = dose: 100.0 mg/kg/injection, schedule: Q01DX005 (ip), vehicle: saline with Tween-80
[4] = dose: 200.0 mg/kg/injection, schedule: Q01DX005 (ip), vehicle: saline with Tween-80
[5] = dose: 50.0 mg/kg/injection, schedule: Q01DX009 (ip), vehicle: saline with Tween-80
[6] = dose: 100.0 mg/kg/injection, schedule: Q01DX009 (ip), vehicle: saline with Tween-80
[7] = dose: 200.0 mg/kg/injection, schedule: Q01DX009 (ip), vehicle: saline with Tween-80
[8] = dose: 50.0 mg/kg/injection, schedule: Q01DX005 (ip), vehicle: Klucel (hydroxypropylcellulose) (HPC)
[9] = dose: 100.0 mg/kg/injection, schedule: Q01DX005 (ip), vehicle: Klucel (hydroxypropylcellulose) (HPC)
[10] = dose: 200.0 mg/kg/injection, schedule: Q01DX005 (ip), vehicle: Klucel (hydroxypropylcellulose) (HPC)
[11] = dose: 6.25 mg/kg/injection, schedule: Q01DX009 (ip), vehicle: saline
[12] = dose: 12.5 mg/kg/injection, schedule: Q01DX009 (ip), vehicle: saline
[13] = dose: 25.0 mg/kg/injection, schedule: Q01DX009 (ip), vehicle: saline with Tween-80
[14] = dose: 25.0 mg/kg/injection, schedule: Q01DX009 (ip), vehicle: saline
[15] = dose: 50.0 mg/kg/injection, schedule: Q01DX009 (ip), vehicle: saline
[16] = dose: 100.0 mg/kg/injection, schedule: Q01DX009 (ip), vehicle: saline
[17] = dose: 200.0 mg/kg/injection, schedule: Q01DX009 (ip), vehicle: saline
[18] = dose: 60.0 mg/kg/injection, schedule: Q01DX005 (ip), vehicle: saline with Tween-80
[19] = dose: 120.0 mg/kg/injection, schedule: Q01DX005 (ip), vehicle: saline with Tween-80
[20] = dose: 240.0 mg/kg/injection, schedule: Q01DX005 (ip), vehicle: saline with Tween-80
[21] = dose: 25.0 mg/kg/injection, schedule: Q01DX009 (ip), vehicle: Klucel (hydroxypropylcellulose) (HPC)

Measured: T/C

O=S1(=O)c2ccccc2N(c2ccccc2)c2nccn21
inactive: dose: 100.0 mg/kg/injection, schedule: Q01DX001 (ip), vehicle: saline with Tween-80 101 % of control | dose: 200.0 mg/kg/injection, schedule: Q01DX001 (ip), vehicle: saline with Tween-80 98 % of control | dose: 400.0 mg/kg/injection, schedule: Q01DX001 (ip), vehicle: saline with Tween-80 92 % of control

COC1C(O)=C2C(=O)OC(C)(O)/C=C/C=C\C=C/C=C/C(c3ccccc3)NC(=O)/C=C/C=C/C=C/C=C/C2(C)C1O (configuration not stated)
inactive: [1] 103 % of control and 86 % of control

OC(C1CCCCC1)C1CCCCC1Cl (configuration not stated)
inactive: [2] 102 % of control | [3] 102 % of control | [4] 102 % of control

Nc1c(Br)cc2c(c1Br)Cc1cc([N+](=O)[O-])ccc1-2
inactive: dose: 31.3 mg/kg/injection, schedule: Q01DX010 (ip), vehicle: saline 90 % of control | dose: 62.5 mg/kg/injection, schedule: Q01DX010 (ip), vehicle: saline 100 % of control | dose: 125.0 mg/kg/injection, schedule: Q01DX010 (ip), vehicle: saline 105 % of control | dose: 250.0 mg/kg/injection, schedule: Q01DX010 (ip), vehicle: saline 110 % of control

COC(=O)c1c(-c2ccccc2)c(-c2ccccc2)n(-c2ccccc2)c1/N=C/N(C)C
inactive: [5] 97 % of control | [6] 90 % of control | [7] 90 % of control

O=c1c2ccccc2n(-c2ccccc2)c2ccc(Cl)cc12
inactive: [2] 86 % of control | [3] 90 % of control

O=c1cc(-c2ccccc2)oc2c1CCCC2
inactive: [8] 101 % of control | [9] 97 % of control | [10] 101 % of control

COc1cc2c(cc1O)CCCCC2
inactive: dose: 100.0 mg/kg/injection, schedule: Q01DX009 (sc), vehicle: olive oil, sesame oil, peanut oil 101 % of control | dose: 200.0 mg/kg/injection, schedule: Q01DX009 (sc), vehicle: olive oil, sesame oil, peanut oil 101 % of control | dose: 400.0 mg/kg/injection, schedule: Q01DX009 (sc), vehicle: olive oil, sesame oil, peanut oil 104 % of control

CN(C)/N=N/c1ccn[nH]1
inactive: dose: 3.12 mg/kg/injection, schedule: Q01DX005 (ip), vehicle: saline with Tween-80 121 % of control | dose: 3.12 mg/kg/injection, schedule: Q01DX009 (ip), vehicle: saline with Tween-80 104 % of control | dose: 3.13 mg/kg/injection, schedule: Q01DX009 (ip), vehicle: saline 97 % of control | dose: 6.25 mg/kg/injection, schedule: Q01DX005 (ip), vehicle: saline with Tween-80 121 % of control | dose: 6.25 mg/kg/injection, schedule: Q01DX009 (ip), vehicle: saline with Tween-80 107 % of control | [11] 87 % of control | dose: 12.5 mg/kg/injection, schedule: Q01DX005 (ip), vehicle: saline with Tween-80 118 % of control | [12] 92 % of control | dose: 25.0 mg/kg/injection, schedule: Q01DX005 (ip), vehicle: saline with Tween-80 121 % of control | [13] 121 % of control | [14] 113 % of control | [5] 122 % of control | [15] 101 % of control

COC(=O)CS(=O)(=O)CS(=O)(=O)CC(=O)OC
inactive: [15] 107 % of control | [16] 100 % of control | [17] 97 % of control

CCOC(=O)/C(=C(\C)N)n1[nH]c(=O)ccc1=O
inactive: dose: 100.0 mg/kg/injection, schedule: Q04DX002 (ip), vehicle: saline 98 % of control | dose: 200.0 mg/kg/injection, schedule: Q04DX002 (ip), vehicle: saline 100 % of control | dose: 400.0 mg/kg/injection, schedule: Q04DX002 (ip), vehicle: saline 100 % of control

O=C1c2ccccc2C(=O)N1C1Nc2ccccc2N1
inactive: [18] 99 % of control | [19] 99 % of control | [20] 96 % of control

O=C1CCCC2=C1CC1=C(CCCC1=O)N2
inactive: [8] 94 % of control | [9] 96 % of control | [10] 90 % of control

COc1cc2c(cc1OC)CN1CCc3ccsc3C1C2 (configuration not stated)
inactive: dose: 50.0 mg/kg/injection, schedule: Q01DX001 (ip), vehicle: Klucel (hydroxypropylcellulose) (HPC) 104 % of control | dose: 100.0 mg/kg/injection, schedule: Q01DX001 (ip), vehicle: Klucel (hydroxypropylcellulose) (HPC) 101 % of control | dose: 200.0 mg/kg/injection, schedule: Q01DX001 (ip), vehicle: Klucel (hydroxypropylcellulose) (HPC) 97 % of control

CCCCOc1ccc(C(=O)OCCNC2CCCCC2)cc1N
inactive: dose: 6.25 mg/kg/injection, schedule: Q01DX009 (ip), vehicle: Klucel (hydroxypropylcellulose) (HPC) 100 % of control | [1] 101 % of control | [21] 93 % of control | dose: 50.0 mg/kg/injection, schedule: Q01DX009 (ip), vehicle: Klucel (hydroxypropylcellulose) (HPC) 91 % of control

CN(C)CCN(C)C
inactive: [6] 100 % of control | [7] 95 % of control

C[C@]12C=CC(=O)C=C1CC[C@H]1[C@@H]3C[C@@H](O)[C@](O)(C(=O)CO)[C@@]3(C)C[C@H](O)[C@@]12F
inactive: dose: 100.0 mg/kg/injection, schedule: Q04DX003 (ip), vehicle: Klucel (hydroxypropylcellulose) (HPC) 100 % of control | dose: 200.0 mg/kg/injection, schedule: Q04DX003 (ip), vehicle: Klucel (hydroxypropylcellulose) (HPC) 90 % of control

c1ccc(-c2cc3cc4c(cc3[nH]2)Oc2ccccc2O4)cc1
inactive: dose: 17.5 mg/kg/injection, schedule: Q01DX009 (ip), vehicle: Klucel (hydroxypropylcellulose) (HPC) 100 % of control and 103 % of control and 109 % of control | dose: 35.0 mg/kg/injection, schedule: Q01DX009 (ip), vehicle: Klucel (hydroxypropylcellulose) (HPC) 100 % of control (2×) and 105 % of control | dose: 70.0 mg/kg/injection, schedule: Q01DX009 (ip), vehicle: Klucel (hydroxypropylcellulose) (HPC) 100 % of control and 103 % of control and 122 % of control | dose: 140.0 mg/kg/injection, schedule: Q01DX009 (ip), vehicle: Klucel (hydroxypropylcellulose) (HPC) 100 % of control

O=C1CN=C(c2ccc[nH]2)c2cc(Cl)ccc2N1
inactive: [21] 120 % of control | [13] 109 % of control | dose: 50.0 mg/kg/injection, schedule: Q01DX001 (ip), vehicle: saline 109 % of control | [5] 100 % of control | dose: 100.0 mg/kg/injection, schedule: Q01DX001 (ip), vehicle: saline 109 % of control | [6] 104 % of control | dose: 200.0 mg/kg/injection, schedule: Q01DX001 (ip), vehicle: saline 104 % of control | [7] 118 % of control | dose: 400.0 mg/kg/injection, schedule: Q01DX001 (ip), vehicle: saline 100 % of control | dose: 400.0 mg/kg/injection, schedule: Q01DX009 (ip), vehicle: saline with Tween-80 118 % of control

CCOc1cc2c(cc1C(CC)c1ccccc1)OCO2 (configuration not stated)
inactive: [8] 99 % of control | [9] 96 % of control | [10] 95 % of control

O=c1[nH]nc(SCc2ccccc2)c2nncn12
inactive: [2] 97 % of control | [3] 92 % of control | [4] 95 % of control

COC(=O)C(CNc1ccc(S(N)(=O)=O)cc1)=[N+]=[N-]
inactive: [11] 98 % of control | [12] 97 % of control | [14] 91 % of control | [16] 100 % of control | [17] 99 % of control

CCCCN(CCCC)c1cc(=O)nc2ccccn12
inactive: dose: 60.0 mg/kg/injection, schedule: Q01DX005 (ip), vehicle: saline 101 % of control | dose: 120.0 mg/kg/injection, schedule: Q01DX005 (ip), vehicle: saline 101 % of control | dose: 240.0 mg/kg/injection, schedule: Q01DX005 (ip), vehicle: saline 100 % of control

Fc1ccc(F)c(C(Nc2nncs2)Nc2nncs2)c1
inactive: dose: 30.0 mg/kg/injection, schedule: Q01DX005 (ip), vehicle: saline with Tween-80 110 % of control | [18] 108 % of control and 119 % of control

CN(C)/C=C/C(=O)c1ccccc1
inactive: [18] 107 % of control | [19] 101 % of control | [20] 102 % of control

O=C(O)Cn1nc([O-])[n+]2ccccc12
inactive: [5] 100 % of control | [6] 94 % of control | [7] 110 % of control

Cc1cc(=O)oc2c1ccc1occc(=O)c12
inactive: [18] 96 % of control | [19] 102 % of control | [20] 100 % of control
